The results in this text go back to US12264159B2, “Functionalized heterocycles as antiviral agents” (Enanta Pharmaceuticals, Inc., priority 2018, dated 2025).

Structures are written as SMILES.

Series [1] can be described thus: Compound induced cellular toxicity in HepG2 cells, ATPlite 1Step. Type of series: cell-based. The following applies: human, three days exposure, 50% reduction of total ATP vs no drug controls. The method, then:
At day 3, post seeding cells are treated with ATPlite 1Step according to the manufacturer's instructions.
On the technique in general: Cellular ATP, detected with luciferase, serves as a proxy for viable cell number.

A further series relates to HBV in 2.2.15 cells. The series is described as follows: 2.2.15 cells: viral product in cell lysates quantified via quantitative real time PCR. Type of series: cell-based, hepatitis B virus (HBV). The following applies: Hepatitis B virus, 120 h, day 5 post treatment, 50% reduction of viral product vs no drug controls, readout (qPCR, HBsAg or HBeAg) not specified for the column. The gist of the method: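 2.2.15 cells (35,000/well, DMEM/F12, 10% FBS, G418) were treated with 5-fold serial compound dilutions, 0.5% DMSO final. After 5 days, lysates were quantified by qPCR, or supernatant HBsAg/HBeAg by ELISA; EC50 is the concentration giving 50% reduction versus no-drug controls.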
On the technique in general: In qPCR the cycle at which signal appears reflects the starting amount.

In general, CC50 refers to the concentration giving 50% cytotoxicity. A low value points to greater toxicity to the cells. One may read the EC50 as the concentration needed to bring the measured effect to its halfway point. Higher therefore signals a need for much substance. For the compound `CC(C)(C)[C@@H]1Cn2nc(-c3ccccc3O)cc2-c2cc(=O)c(C(=O)O)cn21` [Example 46, (R)-6-(tert-butyl)-2-(2-hydroxyphenyl)-10-oxo-5,6-dihydro-10H-pyrazolo[1,5-a]pyrido[2,2-c]pyrazine-12-carboxylic acid], the CC50 at 3 days in series [1] is > 25000 nM. In the series on HBV in 2.2.15 cells, the EC50 was < 100 nM.

Consider `CC(C)[C@@H]1Cn2nc(-c3cccc(F)c3)c(-c3cccc(F)c3)c2-c2cc(=O)c(C(=O)O)cn21` [Example 181, (R)-1,2-bis(3-fluorophenyl)-6-isopropyl-10-oxo-5,6-dihydro-10H-pyrazolo[1,5-a]pyrido[2,1-c]pyrazine-9-carboxylic acid], for which the CC50 at 3 days in series [1] fell in the range of 10000 to 25000 nM. In the series with HBV in 2.2.15 cells, the EC50 is < 100 nM.

As for `CCOc1ccccc1-c1cc2n(n1)C[C@@H](C(C)(C)C)n1cc(C(=O)O)c(=O)cc1-2` [Example 48, (R)-6-(tert-butyl)-2-(2-ethoxyphenyl)-10-oxo-5,6-dihydro-10H-pyrazolo[1,5-a]pyrido[2,2-c]pyrazine-12-carboxylic acid], in series [1], the CC50 at 3 days was > 25000 nM. Also, the EC50 with HBV in 2.2.15 cells is < 100 nM.

With `Cc1cccc(-c2c(-c3ccc(F)cc3)nn3c2-c2cc(=O)c(C(=O)O)cn2[C@H](C(C)(C)C)C3)c1` [Example 170, (R)-6-(tert-butyl)-2-(4-fluorophenyl)-10-oxo-1-(m-tolyl)-5,6-dihydro-10H-pyrazolo[1,5-a]pyrido[2,1-c]pyrazine-9-carboxylic acid], the CC50 at 3 days in series [1] fell in the range of 10000 to 25000 nM. Besides, the EC50 in the series on HBV in 2.2.15 cells was < 100 nM.

Turning to `CC(C)(C)[C@@H]1Cn2nc(-c3ccccc3OC3CCCC3)cc2-c2cc(=O)c(C(=O)O)cn21` [Example 76, (R)-6-(tert-butyl)-2-(2-(cyclopentyloxy)phenyl)-10-oxo-5,6-dihydro-10H-pyrazolo[1,5-a]pyrido[2,2-c]pyrazine-12-carboxylic acid], in series [1], the CC50 at 3 days is > 25000 nM. In the series on HBV in 2.2.15 cells, the EC50 is < 100 nM.

Consider `CC(C)(C)[C@@H]1Cn2nc(-c3ccoc3)cc2-c2cc(=O)c(C(=O)O)cn21` [Example 4, (R)-6-(tert-butyl)-2-(furan-3-yl)-10-oxo-5,6-dihydro-10H-pyrazolo[1,5-a]pyrido[2,2-c]pyrazine-12-carboxylic acid], for which the CC50 at 3 days in series [1] is > 25000 nM. The EC50 with HBV in 2.2.15 cells is 200 to 1000 nM.

`CC(C)(C)[C@@H]1Cn2nc(C3CC3)c(-c3ccc(F)cc3)c2-c2cc(=O)c(C(=O)O)cn21` [Example 146, (R)-6-(tert-butyl)-2-cyclopropyl-1-(4-fluorophenyl)-10-oxo-5,6-dihydro-10H-pyrazolo[1,5-a]pyrido[2,1-c]pyrazine-9-carboxylic acid]: the CC50 at 3 days in series [1] is > 25000 nM. Besides, in the series on HBV in 2.2.15 cells, the EC50 was < 100 nM.

With `COc1ccc(-c2nn3c(c2-c2ccc(OC)cc2)-c2cc(=O)c(C(=O)O)cn2[C@H](C(C)(C)C)C3)cc1` [Example 98, (R)-6-(tert-butyl)-1,2-bis(4-methoxyphenyl)-10-oxo-5,6-dihydro-10H-pyrazolo[1,5-a]pyrido[2,1-c]pyrazine-9-carboxylic acid], the CC50 at 3 days in series [1] is > 25000 nM. In addition, the EC50 with HBV in 2.2.15 cells was < 100 nM.

Regarding `COc1ccc(OC(F)(F)F)c(-c2cc3n(n2)C[C@@H](C(C)(C)C)n2cc(C(=O)O)c(=O)cc2-3)c1` [Example 34, (R)-6-(tert-butyl)-2-(5-methoxy-2-(trifluoromethoxy)phenyl)-10-oxo-5,6-dihydro-10H-pyrazolo[1,5-a]pyrido[2,2-c]pyrazine-12-carboxylic acid], in series [1], the CC50 at 3 days was > 25000 nM. Further, in the series on HBV in 2.2.15 cells, the EC50 is < 100 nM.

Regarding `CCCOc1ccccc1-c1cc2n(n1)C[C@@H](C(C)(C)C)n1cc(C(=O)O)c(=O)cc1-2` [Example 77, (R)-6-(tert-butyl)-10-oxo-2-(2-propoxyphenyl)-5,6-dihydro-10H-pyrazolo[1,5-a]pyrido[2,2-c]pyrazine-12-carboxylic acid], the CC50 at 3 days in series [1] is > 25000 nM. In addition, the EC50 in the series on HBV in 2.2.15 cells is < 100 nM.

Take `CC(C)[C@@H]1Cn2nc(C3CC3)c(-c3ccc(O)cc3)c2-c2cc(=O)c(C(=O)O)cn21` [Example 143, (R)-2-cyclopropyl-1-(4-hydroxyphenyl)-6-isopropyl-10-oxo-5,6-dihydro-10H-pyrazolo[1,5-a]pyrido[2,1-c]pyrazine-9-carboxylic acid]: the CC50 at 3 days in series [1] was > 25000 nM. The EC50 in the series on HBV in 2.2.15 cells was < 100 nM.

`CC(C)(C)[C@@H]1Cn2nc(C3CC3)c(-c3cc(F)ccc3F)c2-c2cc(=O)c(C(=O)O)cn21` [Example 155, (R)-6-(tert-butyl)-2-cyclopropyl-1-(2,5-difluorophenyl)-10-oxo-5,6-dihydro-10H-pyrazolo[1,5-a]pyrido[2,1-c]pyrazine-9-carboxylic acid]: the CC50 at 3 days in series [1] is > 25000 nM. Further, in the series with HBV in 2.2.15 cells, the EC50 was < 100 nM.

Regarding `COc1ccc(OC)c(-c2cc3n(n2)C[C@@H](C(C)(C)C)n2cc(C(=O)O)c(=O)cc2-3)c1` [Example 32, (R)-6-(tert-butyl)-2-(2,5-dimethoxyphenyl)-10-oxo-5,6-dihydro-10H-pyrazolo[1,5-a]pyrido[2,2-c]pyrazine-12-carboxylic acid], the CC50 at 3 days in series [1] is > 25000 nM. The EC50 with HBV in 2.2.15 cells is < 100 nM.

`CC(C)(C)[C@@H]1Cn2ncc(-c3ccc4c(c3F)OCO4)c2-c2cc(=O)c(C(=O)O)cn21` [Example 122, (R)-6-(tert-butyl)-1-(4-fluorobenzo[d][1,3]dioxol-5-yl)-10-oxo-5,6-dihydro-10H-pyrazolo[1,5-a]pyrido[2,1-c]pyrazine-9-carboxylic acid]: in series [1], the CC50 at 3 days is > 25000 nM. Further, the EC50 in the series with HBV in 2.2.15 cells was < 100 nM.

On to `Cc1cccc(-c2cnn3c2-c2cc(=O)c(C(=O)O)cn2[C@H](C(C)(C)C)C3)c1` [Example 125, (R)-6-(tert-butyl)-10-oxo-1-(m-tolyl)-5,6-dihydro-10H-pyrazolo[1,5-a]pyrido[2,1-c]pyrazine-9-carboxylic acid], for which the CC50 at 3 days in series [1] was > 25000 nM. In addition, the EC50 with HBV in 2.2.15 cells was < 100 nM.

Consider `CC(C)(C)[C@@H]1Cn2nc(-c3cccc4nsnc34)cc2-c2cc(=O)c(C(=O)O)cn21` [Example 63, (R)-2-(benzo[c][1,2,5]thiadiazol-4-yl)-6-(tert-butyl)-10-oxo-5,6-dihydro-10H-pyrazolo[1,5-a]pyrido[2,2-c]pyrazine-12-carboxylic acid], for which the CC50 at 3 days in series [1] is > 25000 nM. Besides, in the series on HBV in 2.2.15 cells, the EC50 was < 100 nM.

Take `CC(C)(C)[C@@H]1Cn2nc(-c3ccccc3F)cc2-c2cc(=O)c(C(=O)O)cn21` [Example 3, (R)-6-(tert-butyl)-2-(2-fluorophenyl)-10-oxo-5,6-dihydro-10H-pyrazolo[1,5-a]pyrido[2,2-c]pyrazine-12-carboxylic acid]: the CC50 at 3 days in series [1] was > 25000 nM. For the same compound, in the series with HBV in 2.2.15 cells, the 50% effective concentration (EC50) is < 100 nM.

For the compound `CC(C)(C)[C@@H]1Cn2nc(-c3ccccc3C(F)F)cc2-c2cc(=O)c(C(=O)O)cn21` [Example 85], the CC50 at 3 days in series [1] is > 25000 nM. In the series on HBV in 2.2.15 cells, this compound had an EC50 of 200 to 1000 nM.

Regarding `CC(C)[C@@H]1Cn2nc(C3CC3)c(-c3ccoc3)c2-c2cc(=O)c(C(=O)O)cn21` [Example 132, (R)-2-cyclopropyl-1-(furan-3-yl)-6-isopropyl-10-oxo-5,6-dihydro-10H-pyrazolo[1,5-a]pyrido[2,1-c]pyrazine-9-carboxylic acid], in series [1], the CC50 at 3 days was > 25000 nM. Besides, the EC50 in the series with HBV in 2.2.15 cells is < 100 nM.

For `O=C(O)c1cn2c(cc1=O)-c1c(-c3cccc(F)c3)c(-c3cccc(F)c3)nn1C[C@H]2C1COC1` [Example 209, (R)-1,2-bis(3-fluorophenyl)-6-(oxetan-3-yl)-10-oxo-5,6-dihydro-10H-pyrazolo[1,5-a]pyrido[2,1-c]pyrazine-9-carboxylic acid], the CC50 at 3 days in series [1] is > 25000 nM. Moreover, in the series with HBV in 2.2.15 cells, the EC50 was < 100 nM.

`COc1cccc(C(N)=O)c1-c1cc2n(n1)C[C@@H](C(C)(C)C)n1cc(C(=O)O)c(=O)cc1-2` [Example 52, (R)-6-(tert-butyl)-2-(2-carbamoyl-6-methoxyphenyl)-10-oxo-5,6-dihydro-10H-pyrazolo[1,5-a]pyrido[2,2-c]pyrazine-12-carboxylic acid]: the CC50 at 3 days in series [1] was > 25000 nM. This compound came in with an EC50 in the series on HBV in 2.2.15 cells of 200 to 1000 nM.

Turning to `CC(C)[C@@H]1Cn2nc(-c3ccccc3)c(-c3ccccc3)c2-c2cc(=O)c(-c3ncn[nH]3)cn21` [Example 192, (R)-6-isopropyl-1,2-diphenyl-9-(1H-1,2,4-triazol-5-yl)-5,6-dihydro-10H-pyrazolo[1,5-a]pyrido[2,1-c]pyrazin-10-one], the CC50 at 3 days in series [1] is > 25000 nM. Further, the EC50 in the series with HBV in 2.2.15 cells was < 100 nM.

Consider `O=C(O)c1cn2c(cc1=O)-c1c(-c3ccccc3)c(-c3ccccc3)nn1CC2` [Example 199, 10-oxo-1,2-diphenyl-5,6-dihydro-10H-pyrazolo[1,5-a]pyrido[2,1-c]pyrazine-9-carboxylic acid], for which the CC50 at 3 days in series [1] is > 25000 nM. Also, the EC50 in the series on HBV in 2.2.15 cells is < 100 nM.

For the compound `CC(C)[C@@H]1Cn2nc(C3CC3)c(-c3ccco3)c2-c2cc(=O)c(C(=O)O)cn21` [Example 136, (R)-2-cyclopropyl-1-(furan-2-yl)-6-isopropyl-10-oxo-5,6-dihydro-10H-pyrazolo[1,5-a]pyrido[2,1-c]pyrazine-9-carboxylic acid], the CC50 at 3 days in series [1] is > 25000 nM. Besides, the EC50 in the series on HBV in 2.2.15 cells is < 100 nM.

With `CC(C)(C)[C@@H]1Cn2ncc(-c3cccc(F)c3)c2-c2cc(=O)c(C(=O)O)cn21` [Example 103, (R)-6-(tert-butyl)-1-(3-fluorophenyl)-10-oxo-5,6-dihydro-10H-pyrazolo[1,5-a]pyrido[2,1-c]pyrazine-9-carboxylic acid], the CC50 at 3 days in series [1] is > 25000 nM. Moreover, the EC50 with HBV in 2.2.15 cells is < 100 nM.

With `CC(C)(C)[C@@H]1Cn2ncc(-c3ccc(F)cc3F)c2-c2cc(=O)c(C(=O)O)cn21` [Example 100, (R)-6-(tert-butyl)-1-(2,4-difluorophenyl)-10-oxo-5,6-dihydro-10H-pyrazolo[1,5-a]pyrido[2,1-c]pyrazine-9-carboxylic acid], the CC50 at 3 days in series [1] was > 25000 nM. Moreover, the EC50 with HBV in 2.2.15 cells was < 100 nM.
